{
  "source": "PubChem BioAssay (NCI)",
  "test_in_all_cases": "inhibition of tumour cell growth, NCI panel, 48 h",
  "key": {"RXF 393 renal": {"system": "RXF 393 renal"}, "HCT-116 colon": {"system": "HCT-116 colon"}, "MOLT-4 leukemia": {"system": "MOLT-4 leukemia"}, "OVCAR-4 ovarian": {"system": "OVCAR-4 ovarian"}, "SN12C renal": {"system": "SN12C renal"}, "NCI-H23 lung": {"system": "NCI-H23 lung"}, "MCF7 breast": {"system": "MCF7 breast"}, "COLO 205 colon": {"system": "COLO 205 colon"}, "SNB-19 CNS": {"system": "SNB-19 CNS"}, "NCI-H522 lung": {"system": "NCI-H522 lung"}, "K-562 leukemia": {"system": "K-562 leukemia"}, "U251 CNS": {"system": "U251 CNS"}, "MDA-MB-435": {"system": "MDA-MB-435"}, "UACC-62 melanoma": {"system": "UACC-62 melanoma"}, "UACC-257 melanoma": {"system": "UACC-257 melanoma"}, "CCRF-CEM leukemia": {"system": "CCRF-CEM leukemia"}, "EKVX NSCLC": {"system": "EKVX NSCLC"}, "HT29 colon": {"system": "HT29 colon"}, "SF-268 CNS": {"system": "SF-268 CNS"}, "A549 NSCLC": {"system": "A549 NSCLC"}, "BT-549 breast": {"system": "BT-549 breast"}, "SF-295 CNS": {"system": "SF-295 CNS"}, "M14 melanoma": {"system": "M14 melanoma"}, "HCC-2998 colon": {"system": "HCC-2998 colon"}, "KM12 colon": {"system": "KM12 colon"}, "SK-MEL-28 melanoma": {"system": "SK-MEL-28 melanoma"}, "OVCAR-8 ovarian": {"system": "OVCAR-8 ovarian"}, "SK-MEL-5 melanoma": {"system": "SK-MEL-5 melanoma"}},
  "note": "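Cells were grown in 96-well plates and exposed to each compound for 48 hours at five concentrations; endpoints were interpolated linearly between bracketing concentrations, or set to the highest concentration if not reached. The concentration for 50% growth inhibition is given as GI50. TGI denotes the concentration required for complete inhibition of growth.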",
  "data": [
    {"smiles": "Clc1ccc(Cn2c(CN3CCCC3)nc3ccccc32)cc1", "values": [
      {"measurement": "GI50", "setting": "RXF 393 renal", "result": 14.1, "unit": "µM"},
      {"measurement": "TGI", "setting": "RXF 393 renal", "result": 30.2, "unit": "µM"},
      {"measurement": "GI50", "setting": "HCT-116 colon", "result": 11, "unit": "µM"},
      {"measurement": "TGI", "setting": "HCT-116 colon", "result": 24.7, "unit": "µM"},
      {"measurement": "GI50", "setting": "MOLT-4 leukemia", "result": 28.3, "unit": "µM"},
      {"measurement": "TGI", "setting": "MOLT-4 leukemia", "result": 95.9, "unit": "µM"},
      {"measurement": "GI50", "setting": "OVCAR-4 ovarian", "result": 21.9, "unit": "µM"},
      {"measurement": "TGI", "setting": "OVCAR-4 ovarian", "result": 93.3, "unit": "µM"},
      {"measurement": "GI50", "setting": "SN12C renal", "result": 30.1, "unit": "µM"},
      {"measurement": "TGI", "setting": "SN12C renal", "result": "> 100", "unit": "µM"},
      {"measurement": "GI50", "setting": "NCI-H23 lung", "result": 19, "unit": "µM"},
      {"measurement": "TGI", "setting": "NCI-H23 lung", "result": 59.9, "unit": "µM"},
      {"measurement": "GI50", "setting": "MCF7 breast", "result": 17, "unit": "µM"},
      {"measurement": "TGI", "setting": "MCF7 breast", "result": 32.6, "unit": "µM"},
      {"measurement": "GI50", "setting": "COLO 205 colon", "result": 17.6, "unit": "µM"},
      {"measurement": "TGI", "setting": "COLO 205 colon", "result": 33.4, "unit": "µM"},
      {"measurement": "GI50", "setting": "SNB-19 CNS", "result": 22.1, "unit": "µM"},
      {"measurement": "TGI", "setting": "SNB-19 CNS", "result": 57.1, "unit": "µM"},
      {"measurement": "GI50", "setting": "NCI-H522 lung", "result": 16.3, "unit": "µM"},
      {"measurement": "TGI", "setting": "NCI-H522 lung", "result": 33.7, "unit": "µM"},
      {"measurement": "GI50", "setting": "K-562 leukemia", "result": 19.4, "unit": "µM"},
      {"measurement": "TGI", "setting": "K-562 leukemia", "result": "> 100", "unit": "µM"},
      {"measurement": "GI50", "setting": "U251 CNS", "result": 15.2, "unit": "µM"},
      {"measurement": "TGI", "setting": "U251 CNS", "result": 31.4, "unit": "µM"},
      {"measurement": "GI50", "setting": "MDA-MB-435", "result": 17.1, "unit": "µM"},
      {"measurement": "TGI", "setting": "MDA-MB-435", "result": 41.2, "unit": "µM"},
      {"measurement": "GI50", "setting": "UACC-62 melanoma", "result": 17.4, "unit": "µM"},
      {"measurement": "TGI", "setting": "UACC-62 melanoma", "result": 47.3, "unit": "µM"},
      {"measurement": "GI50", "setting": "UACC-257 melanoma", "result": 20, "unit": "µM"},
      {"measurement": "TGI", "setting": "UACC-257 melanoma", "result": 55, "unit": "µM"},
      {"measurement": "GI50", "setting": "CCRF-CEM leukemia", "result": 27, "unit": "µM"},
      {"measurement": "TGI", "setting": "CCRF-CEM leukemia", "result": "> 100", "unit": "µM"},
      {"measurement": "GI50", "setting": "EKVX NSCLC", "result": 17.5, "unit": "µM"},
      {"measurement": "TGI", "setting": "EKVX NSCLC", "result": 67.7, "unit": "µM"},
      {"measurement": "GI50", "setting": "HT29 colon", "result": 15.5, "unit": "µM"},
      {"measurement": "TGI", "setting": "HT29 colon", "result": 38.4, "unit": "µM"},
      {"measurement": "GI50", "setting": "SF-268 CNS", "result": 30.8, "unit": "µM"},
      {"measurement": "TGI", "setting": "SF-268 CNS", "result": "> 100", "unit": "µM"},
      {"measurement": "GI50", "setting": "A549 NSCLC", "result": 26.9, "unit": "µM"},
      {"measurement": "TGI", "setting": "A549 NSCLC", "result": "> 100", "unit": "µM"},
      {"measurement": "GI50", "setting": "BT-549 breast", "result": 18.1, "unit": "µM"},
      {"measurement": "TGI", "setting": "BT-549 breast", "result": 38.8, "unit": "µM"},
      {"measurement": "GI50", "setting": "SF-295 CNS", "result": 14.3, "unit": "µM"},
      {"measurement": "TGI", "setting": "SF-295 CNS", "result": 31.4, "unit": "µM"},
      {"measurement": "GI50", "setting": "M14 melanoma", "result": 17.1, "unit": "µM"},
      {"measurement": "TGI", "setting": "M14 melanoma", "result": 34, "unit": "µM"},
      {"measurement": "GI50", "setting": "HCC-2998 colon", "result": 21.6, "unit": "µM"},
      {"measurement": "TGI", "setting": "HCC-2998 colon", "result": 54, "unit": "µM"},
      {"measurement": "GI50", "setting": "KM12 colon", "result": 19.5, "unit": "µM"},
      {"measurement": "TGI", "setting": "KM12 colon", "result": 53.4, "unit": "µM"},
      {"measurement": "GI50", "setting": "SK-MEL-28 melanoma", "result": 24.6, "unit": "µM"},
      {"measurement": "TGI", "setting": "SK-MEL-28 melanoma", "result": 65.5, "unit": "µM"},
      {"measurement": "GI50", "setting": "OVCAR-8 ovarian", "result": 29.7, "unit": "µM"},
      {"measurement": "TGI", "setting": "OVCAR-8 ovarian", "result": "> 100", "unit": "µM"},
      {"measurement": "GI50", "setting": "SK-MEL-5 melanoma", "result": 13.3, "unit": "µM"},
      {"measurement": "TGI", "setting": "SK-MEL-5 melanoma", "result": 26.2, "unit": "µM"}
    ]}
  ]
}
